Laboratory results as given in PMC3169410 (Acta Crystallographica Section F: Structural Biology and …, 2011).
Where two headings read alike, the source gives them in different places.

Biological target: T1, BrabA.11339.a (Brucella abortus, UniProt Q2YQ74)
T1 construct: gene BAB1_1016
Conditions: Mn2+ dinuclear active site at dimer interface

T1 sequence (Q2YQ74 2-272 limits assumed): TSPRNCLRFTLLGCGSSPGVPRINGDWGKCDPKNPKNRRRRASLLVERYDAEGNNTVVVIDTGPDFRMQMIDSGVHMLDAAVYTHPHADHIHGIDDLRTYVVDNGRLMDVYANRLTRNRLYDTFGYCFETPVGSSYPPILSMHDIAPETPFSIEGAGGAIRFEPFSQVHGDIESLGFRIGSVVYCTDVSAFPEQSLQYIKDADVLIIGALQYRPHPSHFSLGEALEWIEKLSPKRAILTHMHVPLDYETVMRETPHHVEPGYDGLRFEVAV

## Nc1ncnc2c1ncn2[C@@H]1O[C@H](COP(=O)(O)O)[C@@H](O)[C@H]1O [AMP]
AMP found in cocrystals grown with 1 mM AMPPNP and 2 mM MgCl2 (1.7 A and 1.6 A)
  X-ray crystallography: very solid electron density could be observed for GMP and AMP, respectively

## Nc1nc2c(ncn2[C@@H]2O[C@H](COP(=O)(O)O)[C@@H](O)[C@H]2O)c(=O)[nH]1 [GMP]
GMP copurified from E. coli, partially occupied (3md7, 1.27 A), full density in cocrystal with 1 mM GMPPNP and 2 mM MgCl2 (3py6, 1.7 A)
  X-ray crystallography: In the native structure, a partially occupied GMP molecule can be observed in the immediate proximity
